From patent publication US8598339B2, “Withanolide isolated from Physalis longifolia and analogs and methods of use thereof” (University of Kansas, priority 2011, dated 2013) come the findings set out here.

Holding throughout (type): cell-based
The subject of assay [1] is squamous cell carcinoma of head and neck cells JMAR. Description: MTS cell viability assay, JMAR. The following applies: for IC50: Table 5; for IC90: Table 6. How it is done: (§1) Human carcinoid cells, NCI-H727 (ATCC, Manassas, Va.), were cultured under standard conditions. Squamous cell carcinoma of head and neck cells, MDA1986 (Myers, et al. (2002) Clin. Cancer Res. 8:293) and JMAR (Swan, et al. (2003) Oral Oncol. 39:648-55); and melanoma cells lines B16F10 (ATCC, Manassas, Va.) and SKMEL28 (CLS, Eppelheim, Germany) were cultured in DMEM medium supplemented with 10% heat-inactivated fetal bovine serum (Sigma-Aldrich, St. Louis, Mo.), 1×MEM-essential amino acid, 1×MEM vitamin, and penicillin/streptomycin (Sigma-Aldrich, St. Louis, Mo.) in a humid environment of 5% CO2 at 37° C. Activity of withanolides against DRO81-1 and TT medullary thyroid cancer cells was also determined.
(§2) Cells were cultured in 96 well plates at a concentration of 1-2×10^4 cells/mL. Cell viability was assessed with the nonradioactive cell proliferation MTS assay using Cell Titer 96AQUEOUS One Solution Reagent (PROMEGA, Madison, Wis.), according to the manufacturer's instruction. After a 72-hour treatment, 20 μL of Cell Titer 96AQUEOUS One Solution Reagent were added to each well and incubated for 3 hours at 37° C. 5% CO2, and formazan absorbance was measured at 490 nm.

In a further assay the test system is melanoma cells B16F10. Description: MTS cell viability assay, B16F10. The settings on record: Mus musculus; for IC50: B16-F10, Table 5; for IC90: B16-F10, Table 6. The protocol: as §1, §2
The subject of assay [2] is squamous cell carcinoma of head and neck cells MDA1986. Description: MTS cell viability assay, MDA1986. The settings on record: for IC50: Table 5; for IC90: Table 6. How it is done: as §1, §2
The subject of the next assay is MRC-5. The experiment in a line: MTS cell viability assay, MRC-5. The settings on record: Homo sapiens, MRC5, Table 5.
In assay [3] the test system is human melanoma SKMEL28 cells. The experiment in a line: MTS cell viability assay, SKMEL28. The following applies: for IC90: SK-MEL-28, Table 6. How it is done: as §1, §2
A cell viability MTS assay was carried out to determine the anti-cancer effect of the withanolides on human melanoma SKMEL28 cells. Cells were treated for 72 hours and cell viability was determined according to the manufacturer's instruction.

The mark [4] stands for this setting: Homo sapiens, SK-MEL-28, Table 5.
The mark [5] stands for this setting: Table 3, treated for 72 hours, NA = no activity.

Turning to `CC1=C(CO)C(=O)O[C@@H]([C@@H](C)[C@H]2CC[C@H]3[C@@H]4CC=C5C=CC(=O)[C@]5(C)[C@H]4CC[C@]23C)C1` [Compound X006], the concentration for half-maximal inhibition (IC50) in assay [1] is 19.7 µM; in the assay on melanoma cells B16F10 it was 19.2 µM; in assay [2], above 25 µM; in the assay with MRC-5, above 25 µM; in assay [3] (setting [4]), above 25 µM.

Turning to `CC(=O)OCC1=C(C)C[C@H]([C@@H](C)[C@H]2CC[C@H]3[C@@H]4C[C@H]5O[C@]56[C@@H](O)C=CC(=O)[C@]6(CO)[C@H]4CC[C@]23C)OC1=O` [HFM-JA-336A], the 50% inhibitory concentration (IC50) in assay [1] amounted to 3.6 µM; in the assay on melanoma cells B16F10, 0.28 µM; in assay [3] (setting [4]), 0.58 µM. Besides, the IC90 was found to be 9.8 µM in assay [1], 2.7 µM in the assay on melanoma cells B16F10, 2.7 µM in assay [2] and 0.86 µM in assay [3] (Homo sapiens).

On to `CC1=C(COC2OC(CO)C(OC3OC(C)C(O)C(O)C3O)C(O)C2O)C(=O)O[C@@H]([C@@H](C)[C@H]2CC[C@H]3[C@@H]4C[C@H]5O[C@]56[C@@H](O)C=CC(=O)[C@]6(C)[C@H]4CC[C@]23C)C1` (stereo partly drawn) [Compound X011], for which the IC50 in assay [1] is 8.24 µM; in the assay on melanoma cells B16F10, above 25 µM; in assay [2], 8.1 µM; in the assay with MRC-5, 8.72 µM; in assay [3] (setting [4]), 17.4 µM.

With `CC(=O)OC[C@]12C(=O)C=C[C@H](OC(=O)c3ccc(Cl)cc3)[C@]13O[C@@H]3C[C@H]1[C@@H]3CC[C@H]([C@H](C)[C@H]4CC(C)=C(COC(=O)c5ccc(Cl)cc5)C(=O)O4)[C@@]3(C)CC[C@@H]12` [HFM-JA-400], the half-inhibitory concentration (IC50) in assay [1] is above 25 µM; in the assay on melanoma cells B16F10, 9.04 µM; in assay [2], above 25 µM; with MRC-5 it was 10.8 µM; in assay [3] (setting [4]), above 25 µM.

Turning to `CC1=C(CO)C(=O)O[C@@H]([C@@H](C)[C@H]2CC[C@H]3[C@@H]4C[C@H]5O[C@]56[C@@H](OC(=O)c5ccc(Cl)cc5)C=CC(=O)[C@]6(CO)[C@H]4CC[C@]23C)C1` [HFM-JA-398H], the concentration for half-maximal inhibition (IC50) is 2.61 µM in assay [1]; 2.35 µM in the assay with melanoma cells B16F10; 6.05 µM in assay [2]; 5.29 µM in the assay with MRC-5; 3.45 µM in assay [3] (setting [4]).

`CC1=C(CO)C(=O)O[C@@](C)([C@@H](C)[C@H]2CC[C@H]3[C@@H]4CC=C5C[C@@H](OC6OC(CO)C(O)C(O)C6O)CC(=O)[C@]5(CO)[C@H]4CC[C@]23C)C1` (stereo partly drawn) [Compound X012]: the IC50 in assay [1] was above 25 µM; in the assay on melanoma cells B16F10 it was 10.7 µM; in assay [2], above 25 µM; in the assay on MRC-5 it was above 25 µM; in assay [3] (setting [4]), above 25 µM.

`CC1=C(CO)C(=O)O[C@@H]([C@@H](C)[C@H]2CC[C@H]3[C@@H]4C[C@H]5O[C@]56[C@@H](OC(=O)CN(C)C)C=CC(=O)[C@]6(C)[C@H]4CC[C@]23C)C1` [Compound X036]: the half-inhibitory concentration (IC50) in assay [1] turned out to be 3.53 µM; in the assay on melanoma cells B16F10, 4.37 µM; in assay [2], 1.59 µM; in the assay with MRC-5 it was 3.69 µM; in assay [3] (setting [4]) it was 2.35 µM.

As to `CC1=C(COC2OC(CO)C(O)C(O)C2O)C[C@H]([C@@H](C)[C@H]2CC[C@H]3[C@@H]4CCC5=C(C(=O)C[C@H](O)C5)[C@H]4CC[C@]23C)OC1=O` (stereo partly drawn) [Compound X026B], the IC50 in assay [1] is above 25 µM; with melanoma cells B16F10, 11 µM; in assay [2], above 25 µM; in the assay on MRC-5, 13.5 µM; in assay [3] (setting [4]) it was above 25 µM.

Take `CC1=C(COC(=O)c2ccc(Cl)cc2)C(=O)O[C@@H]([C@@H](C)[C@H]2CC[C@H]3[C@@H]4C[C@H]5O[C@]56[C@@H](OC(=O)c5ccc(Cl)cc5)C=CC(=O)[C@]6(CO)[C@H]4CC[C@]23C)C1` [HFM-JA-398B]: the IC50 is 10.6 µM in assay [1]; 10 µM in the assay with melanoma cells B16F10; above 25 µM in assay [2]; 7.13 µM with MRC-5; above 25 µM in assay [3] (setting [4]).

On to `CC1=C(CO)C(=O)O[C@@H]([C@@H](C)[C@H]2CC[C@H]3[C@@H]4C[C@H]5O[C@]56[C@@H](OC(=O)N(C)C)C=CC(=O)[C@]6(CO)[C@H]4CC[C@]23C)C1` [HFM-JA-403], for which the IC50 turned out to be 0.55 µM in assay [1]; 0.28 µM in the assay on melanoma cells B16F10; 2.48 µM in assay [2]; 0.69 µM in the assay on MRC-5; 2.31 µM in assay [3] (setting [4]).

On to `CC1=C(COC2OC(CO)C(O)C(O)C2O)C[C@H]([C@@H](C)[C@H]2CC[C@H]3[C@@H]4C[C@H](O)c5cccc(O)c5[C@H]4CC[C@]23C)OC1=O` (stereo partly drawn) [Compound X015], for which the half-inhibitory concentration (IC50) (in assay [1]; in the assay on melanoma cells B16F10; in assay [2]; in the assay with MRC-5; in assay [3] (setting [4])) was above 25 µM in each case.

On to `CC(=O)O[C@H]1C=CC(=O)[C@]2(CO)[C@H]3CC[C@]4(C)[C@@H]([C@H](C)[C@H]5CC(C)=C(CO)C(=O)O5)CC[C@H]4[C@@H]3C[C@H]3O[C@]132` [HFM-JA-336C], for which the figures for the half-inhibitory concentration (IC50) (in assay [1]; with melanoma cells B16F10; in assay [3] (setting [4])) were 2 µM, 0.69 µM and 0.57 µM, respectively. The IC90 in assay [1] was 6.5 µM; in the assay with melanoma cells B16F10, 2.5 µM; in assay [2], 2.5 µM; in assay [3] (Homo sapiens), 1.21 µM.

Molecule `C=CCNC1=C2C[C@@H](C)C[C@H](OC)[C@H](O)[C@@H](C)/C=C(\C)[C@H](OC(N)=O)[C@@H](OC)/C=C\C=C(/C)C(=O)NC(=CC1=O)C2=O` [17 AAG, 17-allylamino-17-demethoxygeldanamycin, reference compound] yielded an IC50 in assay [3] (setting [5]) of 0.23 µM.

Regarding `CC(=O)OC[C@]12C(=O)C=C[C@H](O)[C@]13O[C@@H]3C[C@H]1[C@@H]3CC[C@H]([C@H](C)[C@H]4CC(C)=C(CO)C(=O)O4)[C@@]3(C)CC[C@@H]12` [HFM-JA-336B], the IC50 in assay [1] turned out to be 1.2 µM; in the assay with melanoma cells B16F10 it was 0.37 µM; in assay [3] (setting [4]), 0.24 µM. For the same molecule, the concentration for an effect of 90% (IC90) in assay [1] turned out to be 3.1 µM; with melanoma cells B16F10, 1.2 µM; in assay [2], 1.2 µM; in assay [3] (Homo sapiens) it was 1.16 µM.

On to `CC(=O)OCC1=C(C)C[C@H]([C@@H](C)[C@H]2CC[C@H]3[C@@H]4C[C@H]5O[C@]56[C@@H](O)C=CC(=O)[C@]6(COC(C)=O)[C@H]4CC[C@]23C)OC1=O` [HFM-JA-336D], for which the IC50 in assay [1] was 1.45 µM; in the assay with melanoma cells B16F10, 0.37 µM; in assay [3] (setting [4]), 0.27 µM. In addition, the IC90 is 7.1 µM in assay [1], 2.5 µM in the assay on melanoma cells B16F10, 2.5 µM in assay [2] and 0.42 µM in assay [3] (Homo sapiens).

Turning to `CC1=C(CO)C(=O)OC(C(C)C2CCC3C4CC(O)C5(C=O)CCC(=O)C5(C)C4CCC23C)C1` (stereo not drawn) [Compound O010, 22R-5β-formyl-6β,27-dihydroxyl-1-oxo-4-norwith-24-enolide, reference compound], the half-inhibitory concentration (IC50) in assay [3] (setting [5]) amounted to 17 µM.

In assay [3] (setting [5]), `CC1=C(CO)C(=O)O[C@@H]([C@@H](C)[C@H]2CC[C@H]3[C@@H]4C[C@H]5O[C@]56[C@@H](O)[C@@H](O)CC(=O)[C@]6(C)[C@H]4CC[C@]23C)C1` [Viscosalactone B, reference compound] registered an IC50 of 18.9 µM.
